Assay results from EP0585371B1, “AROMATIC OLIGOMERIC COMPOUNDS USEFUL AS MIMICS OF BIOACTIVE MACROMOLECULES” (RHONE-POULENC RORER INTERNATIONAL (HOLDINGS) INC., priority 1991, dated 1992).
pIC50: −log10 of the molar value.

Tests used:
[1] = target: T1, ESb mouse lymphoma heparanase (Mus musculus, UniProt Q6YGZ1); experiment: Inhibition of heparanase activity (degradation of labeled ECM heparan sulfate); assay type: biochemical; conditions: 24 hours incubation with labeled ECM
T1 construct: endogenous in cells; host or cells: ESb mouse lymphoma cells
T1 sequence (Q6YGZ1 28-535): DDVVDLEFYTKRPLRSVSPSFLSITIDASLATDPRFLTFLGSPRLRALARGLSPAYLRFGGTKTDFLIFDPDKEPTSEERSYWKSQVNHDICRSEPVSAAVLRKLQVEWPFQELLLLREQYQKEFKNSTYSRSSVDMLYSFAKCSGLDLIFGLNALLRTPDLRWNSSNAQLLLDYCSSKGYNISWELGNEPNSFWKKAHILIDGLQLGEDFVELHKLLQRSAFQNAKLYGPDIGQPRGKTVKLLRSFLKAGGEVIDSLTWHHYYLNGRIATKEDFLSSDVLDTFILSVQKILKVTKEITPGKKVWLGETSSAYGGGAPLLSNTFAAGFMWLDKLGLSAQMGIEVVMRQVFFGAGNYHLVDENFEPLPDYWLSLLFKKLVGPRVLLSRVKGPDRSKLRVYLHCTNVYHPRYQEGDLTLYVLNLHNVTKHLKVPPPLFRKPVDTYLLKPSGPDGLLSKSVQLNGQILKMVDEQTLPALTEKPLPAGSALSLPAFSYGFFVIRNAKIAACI
Method: Heparanase is an endoglucuronidase capable of degrading […] (HS) at specific intrachain sites.
The ability of compounds of the present invention to inhibit lymphomacell derived heparanase is tested in the assay system described by Vlodavsky et al., Cancer Research 43, 2704-2711 (1983). […] labeled ECM is incubated for 24 hours with ESb mouse lymphoma heparanase in the presence of various concentrations of the oligomers tested. Degradation of the HS is followed by gel filtration of the supematants. Heparanase activity is expressed as the total amount of labeled low-molecular-weight fragments released from the EMC substrate.

[2] = target: T2, vWF Binding to Gp1b (Homo sapiens, UniProt P04275+P07359); experiment: Inhibition of ristocetin-induced binding of 125I-vWF to formalin-fixed platelets; conditions: at 100 µg/ml; ristocetin 1.0 mg/ml
T2 construct: multimeric vWF (isolated from human plasma cryoprecipitate); Formalin-fixed platelets, prepared according to the method of MacFarlane; from tissue; host or cells: vWF from human plasma cryoprecipitate; GPIb on formalin-fixed platelets
T2 sequence (P04275 764-2813 limits assumed): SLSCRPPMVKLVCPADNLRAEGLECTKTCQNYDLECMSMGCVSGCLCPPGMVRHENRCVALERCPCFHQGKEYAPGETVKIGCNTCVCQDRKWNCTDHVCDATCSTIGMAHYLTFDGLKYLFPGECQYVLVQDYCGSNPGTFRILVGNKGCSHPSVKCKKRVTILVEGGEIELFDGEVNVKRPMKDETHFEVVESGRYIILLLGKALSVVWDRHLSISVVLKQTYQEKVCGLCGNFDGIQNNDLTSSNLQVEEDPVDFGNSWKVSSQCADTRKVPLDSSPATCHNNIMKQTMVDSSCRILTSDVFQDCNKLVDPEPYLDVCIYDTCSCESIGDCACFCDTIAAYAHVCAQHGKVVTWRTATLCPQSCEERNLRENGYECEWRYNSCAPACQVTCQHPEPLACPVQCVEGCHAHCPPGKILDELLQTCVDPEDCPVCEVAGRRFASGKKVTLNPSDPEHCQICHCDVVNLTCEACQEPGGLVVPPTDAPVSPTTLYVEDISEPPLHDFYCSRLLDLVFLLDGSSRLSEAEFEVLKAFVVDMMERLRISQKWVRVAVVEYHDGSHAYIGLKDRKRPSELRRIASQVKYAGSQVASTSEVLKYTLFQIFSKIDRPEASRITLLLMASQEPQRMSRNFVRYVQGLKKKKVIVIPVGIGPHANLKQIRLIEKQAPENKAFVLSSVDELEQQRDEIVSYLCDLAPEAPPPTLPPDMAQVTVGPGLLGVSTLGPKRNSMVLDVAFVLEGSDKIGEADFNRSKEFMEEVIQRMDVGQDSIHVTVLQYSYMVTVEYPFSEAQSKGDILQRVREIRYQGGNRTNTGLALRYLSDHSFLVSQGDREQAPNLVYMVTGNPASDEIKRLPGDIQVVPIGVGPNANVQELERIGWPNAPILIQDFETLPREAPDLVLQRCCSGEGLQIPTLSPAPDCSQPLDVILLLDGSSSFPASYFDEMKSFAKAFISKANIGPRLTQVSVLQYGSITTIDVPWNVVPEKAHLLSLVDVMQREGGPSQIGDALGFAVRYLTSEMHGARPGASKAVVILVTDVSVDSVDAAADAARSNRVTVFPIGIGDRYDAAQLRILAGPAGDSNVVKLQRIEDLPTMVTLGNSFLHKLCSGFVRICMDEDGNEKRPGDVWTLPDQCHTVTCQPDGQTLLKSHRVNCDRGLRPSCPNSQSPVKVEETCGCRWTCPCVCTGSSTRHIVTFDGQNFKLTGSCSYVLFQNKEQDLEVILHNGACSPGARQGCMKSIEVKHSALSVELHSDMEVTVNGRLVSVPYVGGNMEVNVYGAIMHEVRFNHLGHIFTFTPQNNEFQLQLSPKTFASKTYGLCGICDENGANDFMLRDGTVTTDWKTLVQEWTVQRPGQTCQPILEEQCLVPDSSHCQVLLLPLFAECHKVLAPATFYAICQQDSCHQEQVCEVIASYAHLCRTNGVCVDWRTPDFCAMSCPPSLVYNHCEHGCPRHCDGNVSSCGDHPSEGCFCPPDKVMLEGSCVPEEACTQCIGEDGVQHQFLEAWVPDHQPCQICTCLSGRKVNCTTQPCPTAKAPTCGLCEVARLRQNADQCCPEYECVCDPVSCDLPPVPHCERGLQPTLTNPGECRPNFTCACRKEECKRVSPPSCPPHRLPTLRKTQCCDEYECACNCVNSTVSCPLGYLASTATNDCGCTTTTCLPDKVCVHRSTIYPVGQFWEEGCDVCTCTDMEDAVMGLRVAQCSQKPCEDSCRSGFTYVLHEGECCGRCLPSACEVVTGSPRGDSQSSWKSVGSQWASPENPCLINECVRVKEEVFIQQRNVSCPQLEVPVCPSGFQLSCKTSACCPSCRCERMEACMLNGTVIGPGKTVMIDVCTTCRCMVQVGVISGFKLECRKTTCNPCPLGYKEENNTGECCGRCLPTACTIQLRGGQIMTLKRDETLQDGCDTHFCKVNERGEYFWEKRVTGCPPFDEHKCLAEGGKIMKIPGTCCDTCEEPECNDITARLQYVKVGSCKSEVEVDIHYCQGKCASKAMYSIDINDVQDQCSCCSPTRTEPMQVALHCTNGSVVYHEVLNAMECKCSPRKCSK
T2 sequence (P07359 17-652): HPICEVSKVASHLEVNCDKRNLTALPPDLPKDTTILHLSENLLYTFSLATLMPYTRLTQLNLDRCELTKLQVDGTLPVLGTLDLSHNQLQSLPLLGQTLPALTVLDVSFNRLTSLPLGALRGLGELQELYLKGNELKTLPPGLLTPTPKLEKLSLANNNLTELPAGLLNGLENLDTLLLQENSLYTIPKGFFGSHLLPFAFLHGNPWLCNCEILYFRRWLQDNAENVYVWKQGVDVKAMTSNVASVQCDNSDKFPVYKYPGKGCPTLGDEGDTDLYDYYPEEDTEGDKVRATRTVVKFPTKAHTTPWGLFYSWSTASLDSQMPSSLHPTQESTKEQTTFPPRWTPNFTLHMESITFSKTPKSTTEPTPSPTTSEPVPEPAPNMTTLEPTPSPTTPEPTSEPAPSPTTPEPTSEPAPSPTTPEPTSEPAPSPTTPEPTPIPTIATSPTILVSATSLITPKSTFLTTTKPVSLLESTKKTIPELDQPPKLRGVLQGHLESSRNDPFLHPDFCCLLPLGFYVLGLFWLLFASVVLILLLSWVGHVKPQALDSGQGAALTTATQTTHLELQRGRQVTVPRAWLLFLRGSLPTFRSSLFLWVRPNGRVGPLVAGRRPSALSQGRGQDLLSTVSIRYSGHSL
Method: The binding of vWf (vonWillebrand Factor) to glycoprotein Ib is measured in one of two experimental systems, in the presence of either ristocetin or botrocetin as modulators of binding. The ristocetin modulated binding is described herein.
Formalin-fixed platelets, prepared according to the method of MacFarlane, D. et al., Thromb. Diath. Haemorrh. 34, 306-308 (1975), were preincubated at room temperature for 15 minutes with specified dilutions of oligomers according to the present invention. Ristocetin, (Sigma, St. Louis, MO) diluted to a final concentration of 1.0 mg/ml, and ^125I-labelled multimeric vWF (isolated from human plasma cryoprecipitate according to the method of Fulcher, C.A. et al. Proc. Natl. Acad. Sci. USA, 79, 1648-1652 (1982), and labelled according to the method of Fraker, P.J. et al. Biochem. Biophys. Res. Commun., 80, 849-857 (1978)) were then added to the incubation mixture, and the amount of ^125I- vWF bound to the platelets was determined. ^125I-vWF binding to the platelets was referenced against 100% binding which was defined as the amount of ^125I- vWF bound in the absence of added oligomer compound. The method for measuring vWF binding is reported in detail in Ruggeri et al., J. Clin. Invest., 72, 1-12, (1983), herein incorporated by reference.

[3] = test system: Vascular smooth muscle cells (VSMC); experiment: Smooth Muscle Cell DNA Synthesis Assay (3H-thymidine incorporation in response to PDGF); assay type: cell-based, swine; conditions: inhibition of incorporation of 3H-thymidine in response to PDGF (9 ng/ml)
Method: Vascular smooth muscle cells (VSMC) are isolated from swine coronaries obtained from swine hearts (Hatfield Meat Packing, Hatfield, PA) by enzyme dissociation as described by Gunther, et al., in J. Cell. Biol. 92, 289 (1982). Hyaluronidase (0.5 mg/ml) is added to facilitate dispersal. Cells are maintained in Earle's modified minimal essential medium (EMEM) with D-valine substituted for L-valine, supplemented with Hepes (10 mM), fetal bovine serum (FBS) (10%), penicillin (100 U/ml) and streptomycin ( 100 µg/ml).
The VSMC (passage 2) are plated at a density of 3 x 10^4 /cm2 (1x10^4 cells/well of 96 well tray) and after 48 hours of normal growth are arrested by replacement of above media with serum-free media for 48 hours consisting of: EMEM: Hams F12 (1:1), insulin, 5 µg/ml; transferrin, 35 µg/ml; selenite, 5 ng/ml; antibiotics and buffer (as above). The oligomer of the present invention to be tested (.01-10 µM) is added 2 hours prior to addition of porcine platelet derived growth factor (Research and Diagonostics, Minneapolis, MN), or FBS,in fresh serum-free media. Twenty-four hours later the oligomers are again added preceding addition of growth factors by 2 hours. […]
The VSMC are pulsed (5 hours) with ^3H-thymidine (Amersham, Arlington Heights, IL) (1 µCi/well of a 96 well plate; 42 Ci/mmole) added 15-18 hours after the last dose of growth factor. DNA synthesis is determined in NaOH extraction of ethanol/ether fixed cells as reported by Nemecek, et al., PNAS 83, 674 (1986). The cells are washed with phosphate bufferred saline (200 µl/well of 96-well tray. The cells are incubated with trichloroacetic acid (TCA) (10%, 200 ul) for 5 minutes to remove cytoplasmic label. After a rapid wash with cold 10% TCA, cells are fixed with ethanol/ether (2:1, 200 µl/well 5 min) and dried. The labeled DNA is extracted with 0.5 N NaOH (200 µl/well 30 min incubation, room temperature). The extracted DNA is neutralized (0.5 N HCI) and counted by liquid scintillation.
Statistical evaluation is as reported by Bilder, et al., Am. […] IC50 values are calculated by linear regression (RPL of RS1) from % inhibition of a minimum of 3 log fold dilutions of oligomers in the presence of PDGF (9 ng/ml) which give 70-80% of a maximal PDGF response. […] Percent inhibition is calculated by comparing the effect of PDGF alone (vehicle treated cultures + PDGF minus vehicle treated cultures without PDGF) to the effect of oligomers (oligomer + PDGF minus oligomer alone) and divided by the effect of PDGF times 100. i.e., = % inhibition = ((ΔVehicle + PDGF) - (Δoligomer + PDGF)/(Δvehicle + PDGF)) x 100.

% Inhibition of Heparanase Activity (5µg/ml) [1]: 2%
Ristocetin-Induced Inhibition of vWF Binding to Gp1b [2]: 50% at 100 µg/ml
pIC50 [3]: 5.80
Structure (SMILES): Cc1cc(O)c(Cc2cc(O)c(Cc3cc(O)c(Cc4cc(O)c(Cc5cc(O)c(Cc6cc(O)c(Cc7cc(O)c(Cc8cc(O)ccc8CCC(=O)O)cc7CCC(=O)O)cc6CCC(=O)O)cc5CCC(=O)O)cc4CCC(=O)O)cc3CCC(=O)O)cc2CCC(=O)O)cc1CCC(=O)O [Ex 4, 5-[4-[4-[4-[4-[4-[4-[[2-(2-carboxyethyl)-5-hydroxy]benzyl]-[2-(2-carboxyethyl)-5-hydroxy]benzyl]-[2-(2-carboxyethyl)-5-hydroxy]benzyl]-[2-(2-carboxyethyl)-5-hydroxy]benzyl]-[2-(2-carboxyethyl)-5-hydroxy]benzyl]-[2-(2-carboxyethyl)-5-hydroxy]benzyl]-[2-(2-carboxyethyl)-5-hydroxy]benzyl]-4-hydroxy-2-methylhydrocinnamic acid]
